Test results reported in patent publication US20240424111A1, “Degrader Compounds and Uses Thereof” (CALICO LIFE SCIENCES LLC, priority 2021, published 2024).

Key:
PTPN2 [1] = target: T1, PTPN2 (Homo sapiens, UniProt P17706); experiment: HiBiT PTPN2 degradation in 293T.109 (HiBiT-PTPN2) cells, 24 hours; assay type: cell-based; conditions: 293T.109 cells
T1 construct: expressed in transfected cells; host or cells: 293T.109 (HiBiT-PTPN2), derived from 293T WT (ATCC)
T1 sequence (P17706 1-415): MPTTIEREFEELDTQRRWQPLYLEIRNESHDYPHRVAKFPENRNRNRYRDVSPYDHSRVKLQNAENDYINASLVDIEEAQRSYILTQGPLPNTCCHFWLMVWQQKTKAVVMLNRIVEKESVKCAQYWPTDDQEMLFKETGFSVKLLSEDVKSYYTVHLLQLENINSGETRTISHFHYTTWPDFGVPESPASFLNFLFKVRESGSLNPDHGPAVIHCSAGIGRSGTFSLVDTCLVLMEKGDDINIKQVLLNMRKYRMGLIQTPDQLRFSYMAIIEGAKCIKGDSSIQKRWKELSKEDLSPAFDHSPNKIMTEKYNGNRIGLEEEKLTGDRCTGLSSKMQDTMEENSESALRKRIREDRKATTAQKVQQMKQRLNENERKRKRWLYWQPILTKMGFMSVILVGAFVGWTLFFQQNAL
Description: Dulbecco's modified Eagle medium (DMEM) without phenol red and fetal bovine serum (FBS) were purchased from Gibco (Grand Island, NY, USA). Nano-Glo® HiBiT Lytic Assay System was purchased from Promega (Medison, WI, USA). 293T. 109 (HiBiT-PTPN2) cell line was generated by ectopically expressing PTPN2 with N-terminal HiBiT fusion tag in 293T WT cell line purchased from ATCC (Manassas, VA, USA). Cell culture flasks and 384-well microplates were acquired from VWR (Radnor, PA, USA).
PTPN2 Degradation Analysis
(§1) PTPN2 degradation was determined based on quantification of luminescent signal using Nano-Glo® HiBiT Lytic Assay kit. Test compounds were added to the 384-well plate from a top concentration of 10 μM with 11 points, half log titration in duplicates. 293T. 109 cells were added into 384-well plates at a cell density of 5000 cells per well. The plates were kept at 37° C. with 5% CO2 for 24 hours. The cells treated in the absence of the test compound were the negative control and the cells without Nano-Glo® HiBiT Lytic reagent were the positive control. After 24-hour incubation, Nano-Glo® HiBiT Lytic Assay reagents were added to the cells. Luminescence was acquired on EnVision™ Multilabel Reader (PerkinElmer, Santa Clara, CA, USA).

PTPN2 [2] = target: T2, PTPN2 (Mus musculus, UniProt Q06180); experiment: HiBiT PTPN2 degradation in B16F10.4 cells, 24 hours; assay type: cell-based
T2 construct: HiBiT; host or cells: B16F10.4
T2 sequence (Q06180 1-406): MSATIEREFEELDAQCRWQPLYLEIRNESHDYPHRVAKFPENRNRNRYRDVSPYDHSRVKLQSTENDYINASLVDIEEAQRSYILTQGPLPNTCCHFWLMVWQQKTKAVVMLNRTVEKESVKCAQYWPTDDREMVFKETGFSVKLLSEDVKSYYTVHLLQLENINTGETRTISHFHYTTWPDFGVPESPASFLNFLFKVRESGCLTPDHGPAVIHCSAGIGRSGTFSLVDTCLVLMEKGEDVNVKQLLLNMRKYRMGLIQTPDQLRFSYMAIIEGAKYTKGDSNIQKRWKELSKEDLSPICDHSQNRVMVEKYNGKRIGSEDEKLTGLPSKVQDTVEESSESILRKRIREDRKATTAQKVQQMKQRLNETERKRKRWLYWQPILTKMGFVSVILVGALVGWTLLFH
Method: as §1

SMILES | DC50 (PTPN2 [1]) [µM] | DC50 (PTPN2 [2]) [µM]
Cn1c(=O)n(C2CCC(=O)NC2=O)c2ccc(C3CCN(CC4CC4C(=O)N4CC[C@@H](c5ccc6cc(O)c(N7CC(=O)NS7(=O)=O)c(F)c6c5)C4)CC3)cc21 (stereo partly shown) [Degrader 18] | 0.05 to 0.15 | 0.15 to 0.5
Cn1c(=O)n(C2CCC(=O)NC2=O)c2cc(F)c(N3CCC(CC(=O)Nc4ccc5c(F)c(N6CC(=O)NS6(=O)=O)c(O)cc5c4)CC3)cc21 (stereo not shown) [Degrader 43] | < 0.05 | 0.15 to 0.5
Cn1c(=O)n(C2CCC(=O)NC2=O)c2ccc([C@@H]3CCN(CC(=O)N4CC(Oc5ccc6cc(O)c(N7CC(=O)NS7(=O)=O)c(F)c6c5)C4)C3)cc21 (stereo partly shown) [Degrader 16] | 0.15 to 0.5 | ≥ 0.5
O=C1CCC(n2c3ccc(CCCCNC(=O)Nc4ccc5c(F)c(N6CC(=O)NS6(=O)=O)c(O)cc5c4)cc3c3cccnc32)C(=O)N1 (stereo not shown) [Degrader 86] | ≥ 0.5 | ≥ 0.5
Cn1c(=O)n([C@@H]2CCC(=O)NC2=O)c2ccc(N3CCC(CC(=O)Nc4ccc5c(F)c(N6CC(=O)NS6(=O)=O)c(O)cc5c4)CC3)cc21 [Degrader 21] | 0.05 to 0.15 | 0.05 to 0.15
Cn1c(=O)n(C2CCC(=O)NC2=O)c2cc(F)c(N3CCC(O)(CC(=O)Nc4ccc5c(F)c(N6CC(=O)NS6(=O)=O)c(O)cc5c4)CC3)cc21 (stereo not shown) [Degrader 74] | < 0.05 | 0.15 to 0.5
Cn1c(=O)n(C2CCC(=O)NC2=O)c2ccc(N3CCC4(CC3)CN(CC(=O)Nc3ccc5c(F)c(N6CC(=O)NS6(=O)=O)c(O)cc5c3)C4)cc21 (stereo not shown) [Degrader 84] | 0.05 to 0.15 | 0.15 to 0.5
COc1cc(CC(=O)Nc2ccc3c(F)c(N4CC(=O)NS4(=O)=O)c(O)cc3c2)ccc1-c1ccc2c(c1)n(C)c(=O)n2C1CCC(=O)NC1=O (stereo not shown) [Degrader 69] | 0.15 to 0.5 | 0.15 to 0.5
Cc1nn(CC(=O)Nc2ccc3c(F)c(N4CC(=O)NS4(=O)=O)c(O)cc3c2)c(C)c1-c1ccc2c(C3CCC(=O)NC3=O)nn(C)c2c1 (stereo not shown) [Degrader 1] | < 0.05 | < 0.05
Cn1c(=O)n(C2CCC(=O)NC2=O)c2ccc(C3CCN(CC(=O)N4CC[C@H](Oc5ccc6cc(O)c(N7CC(=O)NS7(=O)=O)c(F)c6c5)C4)CC3(F)F)cc21 (stereo partly shown) [Degrader 116] | ≥ 0.5 | ≥ 0.5
Cn1c(=O)n([C@H]2CCC(=O)NC2=O)c2ccc(N3CCC(CC(=O)Nc4ccc5c(F)c(N6CC(=O)NS6(=O)=O)c(O)cc5c4)CC3)cc21 [Degrader 20] | 0.05 to 0.15 | 0.05 to 0.15
Cn1c(=O)n(C2CCC(=O)NC2=O)c2ccc(-c3cccc(CCC(=O)Nc4ccc5c(F)c(N6CC(=O)NS6(=O)=O)c(O)cc5c4)c3)cc21 (stereo not shown) [Degrader 80] | < 0.05 | 0.15 to 0.5
Cn1c(=O)n(C2CCC(=O)NC2=O)c2ccc(-c3cccc(CC(=O)Nc4ccc5c(F)c(N6CC(=O)NS6(=O)=O)c(O)cc5c4)c3)cc21 (stereo not shown) [Degrader 77] | 0.15 to 0.5 | ≥ 0.5
Cn1c(=O)n(C2CCC(=O)NC2=O)c2ccc(N3CCC(CC4CC4C(=O)Nc4ccc5c(F)c(N6CC(=O)NS6(=O)=O)c(O)cc5c4)CC3)cc21 (stereo not shown) [Degrader 68] | 0.05 to 0.15 | 0.05 to 0.15
Cn1c(=O)n(C2CCC(=O)NC2=O)c2ccc(-c3ccc(CC(=O)Nc4ccc5c(F)c(N6CC(=O)NS6(=O)=O)c(O)cc5c4)cc3)cc21 (stereo not shown) [Degrader 25] | < 0.05 | < 0.05
Cn1c(=O)n(C2CCC(=O)NC2=O)c2ccc3c(c21)CCCN3CCCC(=O)Nc1ccc2c(F)c(N3CC(=O)NS3(=O)=O)c(O)cc2c1 (stereo not shown) [Degrader 145] | ≥ 0.5 | ≥ 0.5

SMILES | DC50 (PTPN2 [1]) [µM] | DC50 (PTPN2 [2]) [µM]
C[C@@H]1CN(c2ccc3c(c2)n(C)c(=O)n3C2CCC(=O)NC2=O)CCN1CC(=O)Nc1ccc2c(F)c(N3CC(=O)NS3(=O)=O)c(O)cc2c1 (stereo partly shown) [Degrader 91] | 0.05 to 0.15 | 0.15 to 0.5
Cn1c(=O)n(C2CCC(=O)NC2=O)c2ccc(-c3cc4cnn(CC(=O)Nc5ccc6c(F)c(N7CC(=O)NS7(=O)=O)c(O)cc6c5)c4cc3F)cc21 (stereo not shown) [Degrader 83] | < 0.05 | < 0.05
Cn1c(=O)n(C2CCC(=O)NC2=O)c2ccc([C@H]3CCN(CC(=O)Nc4ccc5c(F)c(N6CC(=O)NS6(=O)=O)c(O)cc5c4)C[C@@H]3O)cc21 (stereo partly shown) [Degrader 112] | < 0.05 | 0.05 to 0.15
Cn1c(=O)n(C2CCC(=O)NC2=O)c2ccc(N3CCc4cc(CC(=O)Nc5ccc6c(F)c(N7CC(=O)NS7(=O)=O)c(O)cc6c5)ccc43)cc21 (stereo not shown) [Degrader 119] | 0.15 to 0.5 | 0.05 to 0.15
C[C@@H]1CN(CC(=O)Nc2ccc3c(F)c(N4CC(=O)NS4(=O)=O)c(O)cc3c2)CCN1c1ccc2c(c1F)n(C)c(=O)n2C1CCC(=O)NC1=O (stereo partly shown) [Degrader 148] | 0.05 to 0.15 | 0.15 to 0.5
Cn1c(=O)n(C2CCC(=O)NC2=O)c2ccc(C3CCN(CCNC(=O)Nc4ccc5c(F)c(N6CC(=O)NS6(=O)=O)c(O)cc5c4)CC3)cc21 (stereo not shown) [Degrader 52] | < 0.05 | 0.05 to 0.15
Cn1c(=O)n([C@H]2CCC(=O)NC2=O)c2ccc(-c3ccc(CC(=O)Nc4ccc5c(F)c(N6CC(=O)NS6(=O)=O)c(O)cc5c4)cc3)cc21 [Degrader 27] | 0.05 to 0.15 | < 0.05
Cn1c(=O)n(C2CCC(=O)NC2=O)c2ccc(N3CCC(O)(CC(=O)N4CC(Oc5ccc6cc(O)c(N7CC(=O)NS7(=O)=O)c(F)c6c5)C4)CC3)cc21 (stereo not shown) [Degrader 67] | 0.15 to 0.5 | 0.15 to 0.5
C[C@@H](C(=O)Nc1ccc2c(F)c(N3CC(=O)NS3(=O)=O)c(O)cc2c1)N1CCC(c2ccc3c(c2)n(C)c(=O)n3C2CCC(=O)NC2=O)CC1 (single isomer, unassigned) [Degrader 104] | 0.05 to 0.15 | 0.05 to 0.15
Cn1c(=O)n(C2CCC(=O)NC2=O)c2ccc(N3CCC(O)(CC(=O)N4CC[C@@H](c5ccc6cc(O)c(N7CC(=O)NS7(=O)=O)c(F)c6c5)C4)CC3)cc21 (stereo partly shown) [Degrader 114] | ≥ 0.5 | ≥ 0.5
O=C1CCC(N2C(=O)c3cccc4c(-c5ccc(CC(=O)Nc6ccc7c(F)c(N8CC(=O)NS8(=O)=O)c(O)cc7c6)cc5)ccc2c34)C(=O)N1 (stereo not shown) [Degrader 155] | 0.15 to 0.5 | 0.05 to 0.15
Cn1c(=O)n(C2CCC(=O)NC2=O)c2cccc(N3CCC[C@@H](OCC(=O)Nc4ccc5c(F)c(N6CC(=O)NS6(=O)=O)c(O)cc5c4)C3)c21 (stereo partly shown) [Degrader 135] | ≥ 0.5 | ≥ 0.5
Cn1c(=O)n(C2CCC(=O)NC2=O)c2ccc(-c3ccc(CC(=O)Nc4ccc5c(F)c(N6CC(=O)NS6(=O)=O)c(O)cc5c4)c(F)c3)cc21 (stereo not shown) [Degrader 33] | 0.05 to 0.15 | 0.05 to 0.15
O=C(CCC(=O)Nc1ccc2c(F)c(N3CC(=O)NS3(=O)=O)c(O)cc2c1)NCc1ccc2c3c(cccc13)C(=O)N2C1CCC(=O)NC1=O (stereo not shown) [Degrader 54] | 0.15 to 0.5 | ≥ 0.5
Cc1nn(CC(=O)Nc2ccc3c(F)c(N4CC(=O)NS4(=O)=O)c(O)cc3c2)c2ccc(-c3ccc4c(c3)n(C)c(=O)n4C3CCC(=O)NC3=O)cc12 (stereo not shown) [Degrader 95] | < 0.05 | < 0.05
Cn1c(=O)n(C2CCC(=O)NC2=O)c2ccc(N3CCC(CC(=O)Nc4ccc5c(F)c(N6CC(=O)NS6(=O)=O)c(O)cc5c4)CC3)cc21 (stereo not shown) [Degrader 19] | < 0.05 | 0.05 to 0.15
